Measured values from ChEMBL document CHEMBL1130463, “Chemoenzymatic synthesis and characterization of a new type of carbohydrate-based cationic antimicrobial agents” (1997).

system: Micrococcus luteus; assay: Minimum inhibitory concentration required for the inhibition of Micrococcus luteus; assay type: functional

SMILES | MIC
CCCCCCCCCCCCCCCCCCCCCCCCCCCCCC(=O)OC[C@@H]1OC(OCCC[N+](C)(C)C)[C@@H](O)[C@@H](O)[C@@H]1O.[I-] (some centres undefined) | 1000 µg/mL
CCCCCCCCCCCCCCCCCCCCCCCCCC(=O)OC[C@@H]1OC(OCCC[N+](C)(C)C)[C@@H](O)[C@@H](O)[C@@H]1O.[I-] (some centres undefined) | 50 µg/mL
CCCCCCCCCCCCCCCCCCCCCC(=O)OC[C@@H]1OC(OCCC[N+](C)(C)C)[C@@H](O)[C@@H](O)[C@@H]1O.[I-] (some centres undefined) | 10 µg/mL
CCCCCCCCCCCCCCCCCC(=O)OC[C@@H]1OC(OCCC[N+](C)(C)C)[C@@H](O)[C@@H](O)[C@@H]1O.[I-] (some centres undefined) | 2000 µg/mL

system: Vibrio alginolyticus; assay: Minimum inhibitory concentration required for the inhibition of Vibrio alginolyticus; assay type: functional

SMILES | MIC
CCCCCCCCCCCCCCCCCCCCCCCCCCCCCC(=O)OC[C@@H]1OC(OCCC[N+](C)(C)C)[C@@H](O)[C@@H](O)[C@@H]1O.[I-] (some centres undefined) | 2000 µg/mL
CCCCCCCCCCCCCCCCCCCCCCCCCC(=O)OC[C@@H]1OC(OCCC[N+](C)(C)C)[C@@H](O)[C@@H](O)[C@@H]1O.[I-] (some centres undefined) | 2000 µg/mL
CCCCCCCCCCCCCCCCCCCCCC(=O)OC[C@@H]1OC(OCCC[N+](C)(C)C)[C@@H](O)[C@@H](O)[C@@H]1O.[I-] (some centres undefined) | 500 µg/mL
CCCCCCCCCCCCCCCCCC(=O)OC[C@@H]1OC(OCCC[N+](C)(C)C)[C@@H](O)[C@@H](O)[C@@H]1O.[I-] (some centres undefined) | 2000 µg/mL

system: Fusarium oxysporum; assay: Minimum inhibitory concentration required for the inhibition of Fusarium oxysporum; assay type: functional

SMILES | MIC
CCCCCCCCCCCCCCCCCCCCCC(=O)OC[C@@H]1OC(OCCC[N+](C)(C)C)[C@@H](O)[C@@H](O)[C@@H]1O.[I-] (some centres undefined) | 500 µg/mL
